Reference: paper PMC9853869, “The Myxobacterial Antibiotic Myxovalargin: Biosynthesis, Structural Revision, Total Synthesis, and Molecular Characterization of Ribosomal Inhibition” (Journal of the American Chemical Society, 2023)
In brackets after ≈: the same amount, converted by molar mass. Where two headings read alike, the source gives them in different places. *1 amine or outer side, *2 acyl side, *3 side chain or, on linkers, in order; H or OH if unused. Where a SMILES comes first, the peptide text is derived from it. [ ]: non-standard residue; d: D form. The star is where a group is joined. X1 = O=C(C[C@H](N[*:1])c1ccc(O)cc1)[*:2]; dVal(3-OH) = CC(C)(O)[C@@H](N)C(=O)O; ΔIle(E) = CC/C(C)=C(/N)C(=O)O; Isovaleryl = CC(C)CC(=O)*; Agmatine = N=C(N)NCCCCN*; NMeA = CN[C@@H](C)C(=O)O; ΔVal = CC(C)=C(N)C(=O)O

How the values were obtained:
Staphylococcus aureus = conditions: 4 h
in vivo = conditions: BALB/c, mouse
Streptococcus uberis = conditions: 4 h
HepG2 cells = conditions: HepG2, 24 h, alamarBlue, 0.005 - 99.0 μM, mean of 4 replicates
[1] = test system: Enterococcus faecium DSM-20477; conditions: DSM-20477, 24 h
[2] = test system: Pseudomonas aeruginosa PA14; conditions: PA14, 24 h
[3] = test system: Staphylococcus aureus DSM-346; conditions: DSM-346, 24 h
[4] = test system: Pseudomonas aeruginosa PAO1; conditions: PAO1, 24 h
[5] = test system: intracellular M. tuberculosis H37Rv; experiment: Intracellular activity ex vivo in THP-1-derived macrophages; type: cell-based, Mycobacterium tuberculosis
[6] = test system: Escherichia coli K12 ΔtolC; conditions: K12, 24 h
[7] = test system: Micrococcus luteus DSM-1790; conditions: DSM-1790, 24 h
M. tuberculosis H37Rv [8] = experiment: Time-kill kinetics in vitro; type: cell-based, Mycobacterium tuberculosis; conditions: independent triplicates
M. tuberculosis H37Rv [9] = test system: M. tuberculosis H37Rv
[10] = test system: Chromobacterium violaceum DSM-30191; conditions: DSM-30191, 24 h
[11] = test system: Mycobacterium smegmatis mc2155; conditions: mc2155, 48 h
[12] = test system: Escherichia coli DSM-1116; conditions: DSM-1116, 24 h
Pasteurella multocida [13] = conditions: for Survival rate 48 hpi: single dose 1 h post-infection
Pasteurella multocida [14] = test system: Pasteurella multocida

CC/C(C)=C(/NC(=O)[C@H](NC(=O)[C@@H](NC(=O)[C@@H](CCCNC(=N)N)NC(=O)C(NC(=O)[C@H](NC(=O)C[C@H](NC(=O)[C@H](NC(=O)[C@H](NC(=O)[C@H](C)N(C)C(=O)[C@H](C)NC(=O)C(NC(=O)CC(C)C)=C(C)C)C(C)C)C(C)C)c1ccc(O)cc1)C(C)C)=C(C)C)C(C)C)C(C)C)C(=O)N[C@H](C)C(=O)N[C@@H](C(=O)NCCCCNC(=N)N)C(C)(C)O [MyxA, Myxovalargin A] (Isovaleryl-[ΔVal]A[NMeA][dV][dV][X1][dV][ΔVal][dR]V[dV][ΔIle(E)][dA][dVal(3-OH)]-Agmatine)
MIC (Staphylococcus aureus): 1 to 2 µg/mL | MIC + milk (Staphylococcus aureus): > 64 µg/mL | level at 0.5 h (in vivo; ip, 10 mg/kg): 1830 ng/mL | level at 2 h (in vivo; ip, 10 mg/kg): 1550 ng/mL | level at 0.5 h (in vivo; sc, 50 mg/kg): 5260 ng/mL | level at 2 h (in vivo; sc, 50 mg/kg): 2280 ng/mL | MIC (Streptococcus uberis): 0.25 to 2 µg/mL | MIC + milk (Streptococcus uberis): > 64 µg/mL | median cytotoxic dose CTD50 (HepG2 cells): > 99 µM | tolerability (0.5 mg/kg/day i.p., seven consecutive doses): well tolerated | tolerability (5 mg/kg/day i.p., on day 2): severe adverse effects | half-life (in words) (mice, i.p. 0.5, 2 and 5 mg/kg, blood, LC-MS): long half-life | MIC [1]: 0.5 µg/mL (≈ 0.298 µM) | MIC50 (Mannheimia haemolytica; 4 h): 16 µg/mL (≈ 9.54 µM) | MIC + serum (Mannheimia haemolytica; 4 h): 20 µg/mL | MIC90 (Mannheimia haemolytica; bovine isolates, n = 55): 16 µg/mL (≈ 9.54 µM) | MIC [2]: 16 µg/mL (≈ 9.54 µM) | MIC [3]: 2 µg/mL (≈ 1.19 µM) | MIC [4]: 32 µg/mL (≈ 19.1 µM) | mode of action ex vivo (intracellular) [5]: bacteriostatic activity | MIC [6]: 16 µg/mL (≈ 9.54 µM) | MIC50 (Histophilus somni; 4 h): 4 µg/mL (≈ 2.39 µM) | MIC range (Histophilus somni; 4 h): 2 to 8 µg/mL | MIC90 (Histophilus somni; bovine isolates, n = 20): 8 µg/mL (≈ 4.77 µM) | MIC [7]: 1 µg/mL (≈ 0.596 µM) | mode of killing in vitro (M. tuberculosis H37Rv [8]): dose-dependent bactericidal activity | MIC (M. tuberculosis H37Rv [9]): 0.2 µg/mL (≈ 0.119 µM) | MIC [10]: 8 µg/mL (≈ 4.77 µM) | MIC [11]: 4 µg/mL (≈ 2.39 µM) | MIC [12]: 32 µg/mL (≈ 19.1 µM) | effect on bacterial burden in lung and spleen (M. tuberculosis; 2 mg/kg i.p. daily, study terminated after 1 week): no significant effect on bacterial burden | toxicity in infected mice (M. tuberculosis; mouse, in vivo): moribund after 1 week | Survival rate 48 hpi (Pasteurella multocida [13]; 10 mg/kg MyxA, i.p., groups of 6): 83% | Mean bacteria in liver (Pasteurella multocida [13]; 10 mg/kg MyxA, i.p., n=1): 8.5 x 10^7 CFU/g | Mean bacteria in liver (Pasteurella multocida [13]; 10 mg/kg MyxA, i.p., n=5): 0 CFU/g | bacteriological cure (animals) (Pasteurella multocida [13]; 10 mg/kg i.p.): five out of six | Mean bacteria in liver (Pasteurella multocida [13]; 50 mg/kg MyxA, s.c.): 1.8 x 10^6 CFU/g | Survival rate 48 hpi (Pasteurella multocida [13]; 50 mg/kg MyxA, s.c.): 0% | tolerability (clinical scoring) (Pasteurella multocida [13]; single 10 mg/kg i.p. dose, P. multocida sepsis model): well tolerated | MIC50 (Pasteurella multocida [14]; 4 h): 16 µg/mL (≈ 9.54 µM) | MIC + serum (Pasteurella multocida [14]; 4 h): 10 µg/mL | MIC90 (Pasteurella multocida [14]; bovine isolates, n = 25): 16 µg/mL (≈ 9.54 µM)
